One may read the IC50 as the concentration at which inhibition is half-maximal.

Experimental findings from patent US20200079793A1, “COMPOUNDS AND METHODS FOR MODULATING ADENOSINE A2B RECEPTOR AND ADENOSINE A2A RECEPTOR” (CORVUS PHARMACEUTICALS, INC., priority 2018, published 2020) are described below.

One assay addresses T1, Adenosine A2B Receptor (Homo sapiens, UniProt P29275).
T1 sequence (P29275 1-332): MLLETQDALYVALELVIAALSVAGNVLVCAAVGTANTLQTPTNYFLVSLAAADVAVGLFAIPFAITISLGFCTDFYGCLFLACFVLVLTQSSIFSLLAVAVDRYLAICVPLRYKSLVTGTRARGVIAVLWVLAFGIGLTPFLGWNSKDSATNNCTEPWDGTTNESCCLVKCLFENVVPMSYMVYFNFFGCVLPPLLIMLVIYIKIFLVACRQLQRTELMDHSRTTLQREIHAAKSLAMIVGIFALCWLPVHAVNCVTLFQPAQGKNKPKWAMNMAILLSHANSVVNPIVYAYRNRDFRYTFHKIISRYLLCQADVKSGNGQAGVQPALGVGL
Description: Activity assay of adenosine receptor modulators, Adenosine A2B Receptor (Table 1). It counts as biochemical. Particulars: cAMP; read-out: A2BR cAMP IC50. Here is the method: (§1) Compounds (e.g., adenosine receptor modulators) were tested for its biological activity. The assay results in Table 1 indicate (+ means >1 μM; ++ means 100 nM to 1 μM; +++ means <100 nM).

In a further assay the target is Adenosine A2A Receptor (Homo sapiens, UniProt P29274). Description: Activity assay of adenosine receptor modulators, Adenosine A2A Receptor (Table 1). It is filed as biochemical. Particulars: cAMP; read-out: A2AR cAMP IC50. Here is the method:
as §1

In another assay the target is T2, A1R (Homo sapiens, UniProt P30542).
T2 sequence (P30542 1-326): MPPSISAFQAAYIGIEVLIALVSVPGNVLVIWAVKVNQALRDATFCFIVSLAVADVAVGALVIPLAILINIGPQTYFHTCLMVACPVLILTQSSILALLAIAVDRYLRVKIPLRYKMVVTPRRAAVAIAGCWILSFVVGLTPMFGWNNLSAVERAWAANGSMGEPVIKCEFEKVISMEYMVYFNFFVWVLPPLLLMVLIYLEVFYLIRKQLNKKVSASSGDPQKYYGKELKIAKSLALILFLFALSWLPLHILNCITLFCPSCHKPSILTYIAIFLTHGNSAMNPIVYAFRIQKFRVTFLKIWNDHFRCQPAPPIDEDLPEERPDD
Description: Activity assay of adenosine receptor modulators, A1R cAMP (Table 1). It is filed as cell-based. Here is the method:
as §1

Another assay has as its target T3, A3R (Homo sapiens, UniProt P0DMS8).
T3 sequence (P0DMS8 1-318): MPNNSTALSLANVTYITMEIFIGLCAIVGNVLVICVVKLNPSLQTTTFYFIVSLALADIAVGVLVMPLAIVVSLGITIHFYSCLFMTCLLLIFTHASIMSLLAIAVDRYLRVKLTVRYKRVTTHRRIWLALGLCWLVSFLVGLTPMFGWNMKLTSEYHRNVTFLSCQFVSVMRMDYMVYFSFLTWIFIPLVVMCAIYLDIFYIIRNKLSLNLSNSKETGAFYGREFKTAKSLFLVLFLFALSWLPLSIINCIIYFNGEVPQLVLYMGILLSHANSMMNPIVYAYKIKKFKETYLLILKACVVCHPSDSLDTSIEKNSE
Description: Activity assay of adenosine receptor modulators, A3R cAMP (Table 1). It is filed as cell-based. Here is the method:
as §1

Some results are limits rather than exact numbers.

Sequence of Adenosine A2A Receptor (P29274 whole entry): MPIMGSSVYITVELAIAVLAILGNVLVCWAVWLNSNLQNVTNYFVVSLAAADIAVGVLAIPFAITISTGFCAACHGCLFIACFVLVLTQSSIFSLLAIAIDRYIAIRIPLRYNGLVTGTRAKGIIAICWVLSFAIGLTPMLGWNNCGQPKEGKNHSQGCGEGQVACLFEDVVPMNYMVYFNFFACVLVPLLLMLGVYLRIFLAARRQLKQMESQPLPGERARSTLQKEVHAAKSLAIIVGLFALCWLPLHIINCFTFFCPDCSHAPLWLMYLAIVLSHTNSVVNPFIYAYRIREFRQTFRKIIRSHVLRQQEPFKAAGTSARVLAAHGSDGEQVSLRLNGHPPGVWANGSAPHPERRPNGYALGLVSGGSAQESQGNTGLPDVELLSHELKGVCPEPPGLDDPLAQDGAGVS

As to `Cc1nc2nc(N[C@@H](C)c3cccnc3)nc(C(=O)N3CC(NC(=O)C4CCC4)C3)c2s1` [Example 75, N-[1-[2-Methyl-5-[[(S)-1-(3-pyridyl)ethyl]amino]thiazolo[4,5-d]pyrimidine-7-carbonyl]azetidin-3-yl]cyclobutanecarboxamide], the half-maximal inhibitory concentration (IC50) was 100 to 1000 nM on Adenosine A2B Receptor, less than 100 nM on Adenosine A2A Receptor, more than 1000 nM at A1R and more than 1000 nM at A3R.

As for `Cc1nc2nc(N[C@@H](C)c3cccnc3)nc(C(=O)N3CC(NC(=O)C4(C)CC4)C3)c2s1` [Example 76, 1-Methyl-N-[1-[2-methyl-5-[[(S)-1-(3-pyridyl)ethyl]amino]thiazolo[4,5-d]pyrimidine-7-carbonyl]azetidin-3-yl]cyclopropanecarboxamide], the IC50 at Adenosine A2B Receptor is 100 to 1000 nM; at Adenosine A2A Receptor it was less than 100 nM; at A1R, more than 1000 nM; at A3R it was 100 to 1000 nM.

Consider `Cc1nc2nc(N[C@@H](C)c3cccnc3)nc(C(=O)N3CC(NC(=O)C45CC6CC(CC(C6)C4)C5)C3)c2s1` [Example 77, N-[1-[2-Methyl-5-[[(S)-1-(3-pyridyl)ethyl]amino]thiazolo[4,5-d]pyrimidine-7-carbonyl]azetidin-3-yl]adamantane-1-carboxamide], for which the half-maximal inhibitory concentration (IC50) is less than 100 nM on Adenosine A2B Receptor, less than 100 nM at Adenosine A2A Receptor, more than 1000 nM against A1R and 100 to 1000 nM against A3R.

For `Cc1nc2nc(N[C@@H](C)c3ccccn3)nc(C(=O)N3CC(NC(=O)Nc4ccccc4)C3)c2s1` [Example 78, 1-[1-[2-Methyl-5-[[(S)-1-(2-pyridyl)ethyl]amino]thiazolo[4,5-d]pyrimidine-7-carbonyl]azetidin-3-yl]-3-phenyl-urea], the IC50 is 100 to 1000 nM on Adenosine A2B Receptor, less than 100 nM at Adenosine A2A Receptor, more than 1000 nM against A1R and more than 1000 nM against A3R.

`Cc1nc2nc(N[C@@H](C)c3cccnc3)nc(C(=O)N3CC(NC(=O)NC4CCCC4)C3)c2s1` [Example 79, 1-Cyclopentyl-3-[1-[2-methyl-5-[[(S)-1-(3-pyridyl)ethyl]amino]thiazolo[4,5-d]pyrimidine-7-carbonyl]azetidin-3-yl]urea]: the IC50 is less than 100 nM on Adenosine A2B Receptor, less than 100 nM at Adenosine A2A Receptor, more than 1000 nM against A1R and 100 to 1000 nM on A3R.

Turning to `Cc1nc2nc(N[C@@H](C)c3cccnc3)nc(C(=O)N3CC(NC(=O)c4ccoc4)C3)c2s1` [Example 80, N-[1-[2-Methyl-5-[[(S)-1-(3-pyridyl)ethyl]amino]thiazolo[4,5-d]pyrimidine-7-carbonyl]azetidin-3-yl]furan-3-carboxamide], the IC50 was 100 to 1000 nM at Adenosine A2B Receptor, less than 100 nM on Adenosine A2A Receptor, more than 1000 nM against A1R and more than 1000 nM against A3R.

As for `Cc1nc2nc(N[C@@H](C)c3cccnc3)nc(C(=O)N3CC(NC(=O)C4CCCCC4)C3)c2s1` [Example 81, N-[1-[2-Methyl-5-[[(S)-1-(3-pyridyl)ethyl]amino]thiazolo[4,5-d]pyrimidine-7-carbonyl]azetidin-3-yl]cyclohexanecarboxamide], the IC50 is less than 100 nM at Adenosine A2B Receptor, less than 100 nM at Adenosine A2A Receptor, more than 1000 nM against A1R and 100 to 1000 nM on A3R.

For the compound `Cc1nc2nc(N[C@@H](C)c3cccnc3)nc(C(=O)N3CC(NC(=O)C4CCOCC4)C3)c2s1` [Example 82, N-[1-[2-Methyl-5-[[(S)-1-(3-pyridyl)ethyl]amino]thiazolo[4,5-d]pyrimidine-7-carbonyl]azetidin-3-yl]tetrahydropyran-4-carboxamide], the IC50 at Adenosine A2B Receptor is 100 to 1000 nM; on Adenosine A2A Receptor, less than 100 nM; against A1R it was more than 1000 nM; against A3R it was more than 1000 nM.

With `Cc1cc(C)cc(C(=O)NC2CN(C(=O)c3nc(N[C@@H](C)c4cccnc4)nc4nc(C)sc34)C2)c1` [Example 83, 3,5-Dimethyl-N-[1-[2-methyl-5-[[(S)-1-(3-pyridyl)ethyl]amino]thiazolo[4,5-d]pyrimidine-7-carbonyl]azetidin-3-yl]benzamide], the IC50 at Adenosine A2B Receptor is less than 100 nM; on Adenosine A2A Receptor it was less than 100 nM; against A1R it was more than 1000 nM; on A3R, more than 1000 nM.
